Consider two compounds from patent publication US20110300142A1, “USE OF ZEBURALINE FOR THE TREATMENT OF AUTOIMMUNE DISEASES OR IMMUNE REJECTION OF TRANSPLANTS” (priority 2007, published 2011).

One series relates to human lymphocytes. Briefly: Proliferation of stimulated human lymphocytes. The series is classed as cell-based. Here is the method:
(§1) FIG. 4A show proliferation of stimulated human lymphocytes after five days in culture in the presence of zebularine at different concentrations, FIG. 4B show restoration of inhibited proliferation of stimulated human lymphocytes after five days in culture in the presence of zebularine at two different concentrations and the IDO inhibitor 1-methyl tryptophane at 100 μM and FIG. 4C show proliferation of stimulated rat spleen lymphocytes after four days in culture in the presence of zebularine at different concentrations.
(§2) In an experiment the inventors tested the immunogenicity of genetically engineered rat colon cancer cells expressing rat interleukin 12. These cancer cells have repeatedly been used to immunize rats that create a strong immune response towards the rat tumour cells. […] This was congruent with the changes in expression of IDO (FIG. 3). […] There is a very reproducible induction of IDO (about 20-fold) from different human leukocyte cultures with a slight interindividual variation.

A further series concerns IDO mRNA expression. The series can be described thus: qRT-PCR analysis of IDO mRNA expression in rat colon cancer cell lines. Type of series: cell-based. The following applies: for increase of the IDO mRNA level: 100 μM zebularine, normalized to HPRT. On the procedure: The values given are normalized in relation to the HPRT expression values.
(§3) The treatment with 100 μM of zebularine induced IDO mRNA expression in all three cell lines. A 48-fold increase of the IDO mRNA level in the H1D2WT cell line, a 24-fold increase in the H1D2IL12C46 cell line and a 14-fold increase in the H1D2IL18C2 cell line were detected. […] The inventors know that the 100 μM treatment of tumour cells strongly induces the production of the immunosuppressive molecule IDO but the induction of other T cell immunosuppressive molecules might also be involved, although no evidence has been found for an effect on prostaglandine E2 (PGE2) or nitric oxide (NO) production. It seems that the 100 μM zebularine treatments are not affecting the PGE2 production, the NO production, or the production of tumour antigens.
In general terms: In qPCR the cycle at which signal appears reflects the starting amount.

The next series deals with bladder carcinoma cells. The following applies: zebularine 500-1000 mg/kg; cited from earlier work.
The conditions of series [1]: cited from earlier work.
For a further series, the system named is p16 gene expression. The following applies: zebularine 100-500 μM; cited from earlier work.
Series [2] deals with IDO. Briefly: IDO production in rat spleen cells. Type of series: cell-based. The following applies: similar treatment (100 μM).
Excerpt: as §2

Series [3] deals with IDO. The series can be described thus: IDO induction in human buffy coat leukocyte cultures. The series is classed as cell-based. The following applies: different human leukocyte cultures, slight interindividual variation.
Excerpt: as §2

In the next series the test system is rat colon cancer cells. Briefly: Immunization of rats with zebularine-pretreated tumour cells; proliferative response of spleen cells / immunogenicity. Type of series: in vivo. Here is the method: as §3, §2
The subject of the next series is tumour cells. Briefly: PGE2, NO and tumour antigen production of treated tumour cells. Type of series: cell-based, rat. The following applies: 100 μM zebularine treatment. Here is the method:
as §3

For series [4] the following is noted: compared to azacytidine or 2′-deoxy-azacytidine; cited from earlier work.
In the next series the test system is rat spleen lymphocytes. Briefly: Proliferation of stimulated rat spleen lymphocytes. Type of series: cell-based. The following applies: rat spleen cells. On the procedure:
as §1, §2

The conditions of series [5]: mouse, cited from earlier work.

As for `Cn1cc(C[C@H](N)C(=O)O)c2ccccc21` [1-methyl tryptophan, reference compound], the “effect on zebularine-induced suppression of proliferation” value with human lymphocytes (IDO inhibitor added to zebularine-treated stimulated human lymphocytes, 100 μM, five days) was “can be blocked”.
Take `O=c1ncccn1[C@@H]1O[C@H](CO)[C@@H](O)[C@H]1O` [zebularine, 1-(β-D-Ribofuranosyl)-1,2-dihydropyrimidin-2-one]: in the series on IDO mRNA expression (100 μM), the “production of IDO” value is recorded as “strongly enhance”. Also, the “increase of the IDO mRNA level” value in the series on IDO mRNA expression (H1D2IL12C46 cell line) was found to be 24 fold. In the series with IDO mRNA expression (H1D2IL18C2 cell line), the “increase of the IDO mRNA level” value is 14 fold. Besides, in the series with IDO mRNA expression (H1D2WT cell line), the “increase of the IDO mRNA level” value was 48 fold. Further, in the series on bladder carcinoma cells, the “in vivo p16 gene expression” value is on record as “induced” and the tumour volume result was “reduced”. In series [1], the solubility in water entry is listed as “soluble in water”. Moreover, the p16 gene expression entry with p16 gene expression was “induces p16 gene expression”. Moreover, the polyclonal lymphocyte proliferation result with human lymphocytes (human buffy coat leukocytes) is “strong suppression”. The IDO production result in the series with IDO [2] is recorded as “enhanced IDO production”. In the series with IDO [3], the “induction of IDO” value is given as “about 20 fold”. The “immunogenicity of rat colon cancer cells expressing rat interleukin 12 when used for immunization” value with rat colon cancer cells (cells pre-treated with 100 μM zebularine) is reported as “less immunogenic”. For the same compound, the “proliferative response of non-adherent spleen cells stimulated with tumor cells in vitro” value with rat colon cancer cells (rats immunized with tumour cells pretreated with 100 μM zebularine) is recorded as “very weak proliferative response”. In the series on tumour cells, the NO production result is “not affecting”, the PGE2 production entry was “not affecting” and the “production of tumour antigens” value is on record as “not affecting”. Besides, in series [4], the stability entry was “stable” and the toxicity result was “not very toxic”. Besides, the polyclonal lymphocyte proliferation result in the series on rat spleen lymphocytes is given as “strong suppression”. Besides, the “fraction of dose absorbed in tissues” value in [5] (i.v., 100 mg/kg, plasma, red blood cells, liver, kidney, spleen, heart, lung, muscle, Duodenum, Jejunum, Ileum, Colon and Carcass) is given as “about 60%”. Further, in series [5] (i.v.), the “bioavailability after i.v. injection” value is on record as “good”; the “bioavailability for Fat, Brain, Testes, Cecum and Stomach” value is given as “less”. In [5] (many tissues), the turnover in tissues entry is reported as “quite fast”. Moreover, in series [5], the metabolites entry is “uridine, uracil and dihydrouracil”.
